Experimental data taken from publication PMC11438743, “High-dose colistin pharmacokinetics in critically ill patients receiving continuous renal replacement therapy” (Annals of Intensive Care, 2024).
Like-named read-outs stand apart in the source and are kept apart here.

How the values were obtained:
[1] = cited from earlier work
Experimental: Several variables may influence colistin plasma concentration as demographic (e.g. body mass), clinical (e.g. kidney function) and therapeutic (e.g. RRT modality, membrane, mode and dose) variables. In order to account for CRRT removal of colistin, the 2019 international guidelines for the optimal use of polymyxins recommend administering a daily dose of 440 colistin base activity (CBA), corresponding to ≈ 13,3 MIU or ≈ 1173 mg of CMS in patients who are exposed to this extracorporeal organ support. […] The authors, documenting a 62% ClCVVHDF, formulated a pharmacokinetic model where a LD of 12 MIU followed by a maintenance dosage of 6.75–7.5 MIU q12 would be needed to achieve a target Css, avg of 2–3 mcg/mL [31]. […] Further, in the latest and largest investigation on this topic, ten critically ill patients requiring CRRT and receiving CMS 3 MIU q8 were prospectively studied.

Acinetobacter spp. = assay: Colistin MIC of BAL isolates (Micronaut AST BMD, VITEK 2 AST-N397, EUCAST v11.0); assay type: cell-based; conditions: BAL Acinetobacter spp. isolates of 20 patients; median [interquartile range]
Experimental: Bacterial isolates were identified by using matrix-assisted laser desorption ionization-time of flight mass spectrometry (MALDI-TOF MS). MICs were determined by a Micronaut AST system-based BMD, VITEK 2 AST-N397 card, according to the manufacturer’s instructions. EUCAST (version 11.0, 2021) clinical breakpoints were used to interpret MICs. In pneumonia episodes, microbiological evidence of bacterial infection was achieved by processing respiratory samples both for conventional and fast-microbiology panel testing. […] Semiquantitative culture results were obtained using calibrated loops to inoculate and streak samples on both selective/differential.

[2] = Colistin plasma pharmacokinetics at steady state in critically ill patients undergoing CRRT (CVVHDF); assay type: in vivo, human; conditions: median [IQR]
Experimental: According to current guidelines, CMS high dosage (HD) was administered intravenously (IV) at loading dose (LD) of 9 MIU […] over 30-min, followed by 6.75 MIU over 30-min q12. On day 4, at steady state, pharmacokinetic analyses of the study group were performed. CRRT was delivered as continuous veno-venous hemodiafiltration (CVVHDF) with Prismaflex ST150 (Gambro AB, Lund, Sweden) using the AN69 ST membrane (acrylonitrile-sodium-methyl sulfonate surface treated; surface area, 1.5m2) and regional citrate anticoagulation. Dose intensity was prescribed according to current guidelines, and with a ratio of dialysate to replacement fluid of 1:1. The CRRT circuit and membrane were changed every 72 h, as standard operating procedure in our center.
Although colistin concentration-time profiles are stable just on day 3, blood samples were collected after the seventh dose (on day 4 of treatment) at T0 (immediately before the initiation of CMS infusion) and 1 h, 2 h, 4 h, 6 h, 8 h, 10 h and 12 h from the start of CMS infusion. First order kinetic determined pharmacokinetic parameters; maximum and minimum concentrations (Cmax, Cmin) were directly obtained from observed peak and trough concentrations. The 0–12 h area under the time–concentration curve (AUC0–12 ) was determined by the linear trapezoidal rule. Colistin AUC0–24 was calculated as AUC0–12 × 2. The average steady-state plasma concentration (Css, avg) was obtained from the ratio of colistin AUC 0–24 above T (i.e. the dosage interval). In all patients, distribution volume (Vd), drug clearance (CL), and elimination half-life (t1/2 ) were calculated after a single 6.75 MIU intravenous dose at steady state. According to current guidelines, the recommended PK/PD therapeutic target has been considered the area under the plasma concentration- time curve across 24 h at steady state above MIC (fAUCss 0−24 hr) of ~ […], that equates to a target Css, avgof ~ 2 mg/L of the total drug against susceptible strains (MIC ≤ 2 mcg/mL). […] Colistin and CMS concentration were measured using and modifying the Gobin assay.

[3] = plasmatic absorption after aerosolization of either 3 MIU and 5 MIU CMS; cited from earlier work
Description: In our study, all patients underwent CVVHDF with a similar daily dose and since this technique uses diffusion across a concentration gradient (e.g. hemodialysis) in addition to hemofiltration across a pressure gradient, the equivalences of the two modes with respect to CMS/colistin clearance are unknown. Additionally none of our patients had residual renal function and almost all were also receiving high dose nebulized CMS (5 MIU q8), delivered through vibrating mesh nebulizers, potentially contributing to the higher than expected steady-state colistin levels. In our study we cannot asc ...

[4] = in vivo, iv
Experimental: Clinical and demographic data were recorded upon enrolment. […] Renal recovery was defined as a reduction in peak AKI-KDIGO stage [21] and was evaluated in patients without chronic kidney disease.

[5] = system: CR-Acinetobacter baumannii ventilator associated pneumonia (VAP); assay: Clinical outcome of patients treated with high-dose intravenous colistimethate; assay type: in vivo, human; conditions: 20 patients, IV CMS 9 MIU LD then 6.75 MIU q12 in combination therapy, no control group
[6] = eight critically ill patients receiving CRRT, CMS 4.5 MIU q12
[7] = five patients on CRRT, CMS until 2 MIU q8
[8] = ten critically ill patients requiring CRRT, CMS 3 MIU q8
[9] = colistin, 20 patients on CVVHDF (AN69 ST membrane), steady state

## CC[C@H](C)CCCCC(=O)N[C@@H](CCN)C(=O)N[C@H](C(=O)N[C@@H](CCN)C(=O)N[C@H]1CCNC(=O)[C@H]([C@@H](C)O)NC(=O)[C@H](CCN)NC(=O)[C@H](CCN)NC(=O)[C@H](CC(C)C)NC(=O)[C@@H](CC(C)C)NC(=O)[C@H](CCN)NC1=O)[C@@H](C)O (mixture of isomers) [Colistin, Colistin (polymixin E)]
[1]; [6]
  ClCVVHDF: 62%
  median Cmax: 1.72 mg/L
[1]; [7]
  CLHDF: above 4 L/h
  Css, avg: ≤ 1 µg/mL
  membrane extraction ratio: 68%
[1]; high CMS daily administration schedules during CRRT, especially with residual renal function and prolonged course
  steady-state concentrations: above 10 mcg/mL
[1]; [8]
  AUC0-24: 569 [404–741] mcg h/mL
  CRRT clearance as share of total clearance: 28%
  Css, avg: 4.43 [3.01–7.24] mcg/mL
[1]; three patients on CRRT
  effluent clearance share: about 40%
Acinetobacter spp.
  MIC: 1[1-1.5] mcg/mL
[2]; [9]
  %E (% filter extraction): 17.65 [14.98–21.67] %
  CLCRRT: 1.21 [0.88–1.35] L/h
[2]; human, plasma, colistin, 20 patients on CVVHDF, after a single 6.75 MIU IV CMS dose at steady state
  Vd: 126 L
[2]; human, plasma, colistin, 20 patients on CVVHDF, after a single 6.75 MIU IV CMS dose at steady state, one-compartment, first order
  half-life: 1250 min
[2]; human, plasma, colistin, 20 patients on CVVHDF, after the seventh 6.75 MIU IV CMS dose at steady state, read-out: CLTOT (converted)
  clearance: 34.7 mL/min
[2]; human, plasma colistin, 20 critically ill anuric patients on CVVHDF (AN69 ST, 32.5 mL/kg/h), IV CMS 9 MIU LD then 6.75 MIU q12, after seventh dose (day 4, steady state), observed peak, modified Gobin assay
  Cmax: 16600 ng/mL
[2]; human, plasma colistin, 20 patients on CVVHDF, IV CMS 6.75 MIU q12 after 9 MIU LD, day 4, AUC0-12 (linear trapezoidal) x 2, read-out: AUC0-24
  AUC(0-t): 194 µg·h/mL
[2]; human, plasma colistin, 20 patients on CVVHDF, IV CMS 9 MIU LD then 6.75 MIU q12, after seventh dose (day 4), observed trough, read-out: Cmin
  level at 96 h: 3930 ng/mL
[2]; plasma colistin, 20 patients on CVVHDF, IV CMS 9 MIU LD then 6.75 MIU q12, day 4, AUC0-24 over dosage interval
  Css, avg (average steady-state concentration): 8.07 [7.1–8.69] mcg/mL
[2]; plasma colistin, subgroup with renal recovery, p = 0.026 vs no renal recovery
  Css, avg in patients who recovered renal function: 7.48 [6.35, 8.05] mcg/mL
[2]; plasma colistin, subgroup without renal recovery, p = 0.026 vs renal recovery
  Css, avg in patients that had no renal recovery: 8.31 [7.35, 9.13] mcg/mL
[2]; unbound colistin, unbound fraction derived from literature, 20 patients on CVVHDF, IV CMS 6.75 MIU q12, day 4
  fAUC0-24: 58.16 [51.18–62.6] mcg h/mL
[3]
  colistin concentrations after aerosolization: < 1 µg/mL

## colistimethate [CMS]
[1]; human, in vivo
  CRRT clearance as share of total clearance: 41%
  median Cmax: 12.6 mg/L
  risk to overcome the safety limit of Css, avg ≥ 4 mcg/mL: less than 30%
  target attainment rate (Css, avg ≥ 2 mcg/mL): 80%
[4]
  Renal Recovery: 6 (37.5) count (percentage)
[5]; 18 with nebulized CMS
  Death in ICU: 15 (75) count (percentage)
[5]
  Treatment failure: 14 (70) count (percentage)
